In patent publication US20250099420A1, “SMALL MOLECULE MODULATORS OF GPR139 COMPLEX” (University of Florida Research Foundation, Incorporated, priority 2022, published 2025):
pEC50: −log10 of the molar value.

How the values were obtained:
[1] = tested on: parental HEK cells; experiment: HEK parental Antagonist Counterscreen Assay (non-transfected cells, acetylcholine control); format: cell-based; conditions: for pEC50: Homo sapiens, HEK293, acetylcholine as control, scientific notation, molarity
From the text: C. […] The HEK parental counterscreen utilized the same cells but not transfected with the plasmid. The agonist and antagonist modes were run the same way as the primary screen but acetylcholine was used in place of GPR139 agonist as the control compound.
The HEK parental counterscreen utilized the same cells but not transfected with the plasmid. The antagonist modes assays utilized the cells being plated in the 1536 well plate overnight in growth media prior to dye loading in PDL coated plates and acetylcholine was used in place of GPR139 agonist as the control compound.
(§1) The HEK parental counterscreen utilized the same cells but not transfected with the plasmid. Acetylcholine was used in place of GPR139 agonist as the control compound. The cells were plated overnight, similar to the HEK antagonist counterscreen protocol.
The HEK parental counterscreens utilized the same cells but not transfected with the plasmid. Acetylcholine was used in place of GPR139 agonist as the control compound. The cells were plated overnight, similar to the HEK antagonist counterscreen protocol.
(§2) For each test compound, percent activation was plotted against compound concentration. A four parameter equation describing a sigmoidal dose-response curve was then fitted with adjustable baseline using Assay Explorer software (Symyx Technologies Inc.).

[2] = molecular target: T1, GPR139 (Homo sapiens, UniProt Q6DWJ6); experiment: GPR139 Agonist titration / agonist counterscreen assay (calcium detection, HEK-GPR139 cells); format: cell-based; design: expressed in transfected cells; host or cells: HEK Aequorin cells, Maxcyte transient transfection; conditions: agonist counterscreen of the antagonists; for pEC50: scientific notation, molarity, read-out: GRP139 Agonist activity EC50
T1 sequence (Q6DWJ6 1-353): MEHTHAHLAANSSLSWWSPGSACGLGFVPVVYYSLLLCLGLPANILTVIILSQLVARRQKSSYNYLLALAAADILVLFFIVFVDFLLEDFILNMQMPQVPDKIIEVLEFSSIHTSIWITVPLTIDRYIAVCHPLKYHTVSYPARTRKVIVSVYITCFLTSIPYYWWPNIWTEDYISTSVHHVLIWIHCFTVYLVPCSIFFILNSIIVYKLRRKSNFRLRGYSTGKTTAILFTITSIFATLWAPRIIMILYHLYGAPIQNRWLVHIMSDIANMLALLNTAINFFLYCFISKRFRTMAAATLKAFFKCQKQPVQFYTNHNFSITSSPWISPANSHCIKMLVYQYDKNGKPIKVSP
Protocol: GPR activity was assessed using a calcium detection assay. […] Negative control samples were treated with DMSO. […] Intracellular calcium was measured using Calcium 5.

[3] = molecular target: T1, GPR139; experiment: GPR139 Antagonist titration assay (calcium detection, HEK-GPR139 cells, vs EC80 of S-JNJ-63533054); conditions: for GPR139 Antagonist Activity Averaged Max % Response (±St. Dev.): activity relative to known control; for GPR139 Antagonist Activity Lipophilic Efficiency (logD): based on logD; for GPR139 Antagonist Activity Lipophilic Efficiency (logP): based on logP; for GPR139 Antagonist Activity Hill Slope: fitted dose-response curve
Protocol: GPR activity was assessed using a calcium detection assay. GPR139 agonists stimulate an increase in intracellular calcium in HEK-GPR139 cells. Agonists increase the release of intracellular calcium, while antagonists decrease the release of intracellular calcium, as compared to an EC80 stimulation of the know agonist S-JNJ-63533054. The positive control for the agonist mode was cells treated with EC100 of known agonist S-JNJ-63533054. Negative control samples were treated with DMSO. The antagonist high control in cells was EC80 of S-JNJ-63533054+IC100 S-JNJ-3792165, while cells were treated with EC80 of S-JNJ-63533054+DMSO for the low control. Intracellular calcium was measured using Calcium 5.
HEK cells were transfected the DNA encoding GPR139 and incubated for 24 hours. 3000 cells/well in 3 μL HEPES and 1% DMSO were seeded into 1536-well plates. 3 μL Calcium 5 was then added to each well and cells were incubated for 60 min. at 37° C. in 5% CO2 and 95% relative humidity. Cells were pretreated with 50 nL DMSO (5 min. at room temperature in the dark) to stabilize response and desensitize cells to DMSO. A 5 second basal read was recorded and compounds in 30 nL were added to the cells, followed by a 150 second read.
B. Antagonist Mode: The “High Control” represented wells containing cells with GPR139+Antagonist IC100+Agonist EC80. “Low Control” represented wells containing cells with GPR139 with EC100 Agonist. “0% control” and sample field represented wells containing cells with GPR139 with EC80 Agonist with DMSO or compounds. The Z′ and S:B for this assay were calculated using the High Control and Low Control wells.
as §1
The GPR139 Agonist and Antagonist titration assays employed the same reagents, protocols, and detection systems as the primary assays, but tested each as 10 point dose response starting at 676 nM concentration in triplicate with 1:3 dilutions. The HEK parental counterscreens utilized the same cells but not transfected with the plasmid. Acetylcholine was used in place of GPR139 agonist as the control compound. The cells were plated overnight, similar to the HEK antagonist counterscreen protocol.
as §2

GRP139 Agonist activity Averaged Max % Response (±St. Dev.) [2] | pEC50 [2] | pEC50 [3] | GPR139 Antagonist Activity Ligand Efficiency [3] | GPR139 Antagonist Activity Averaged Max % Response (±St. Dev.) [3] | GPR139 Antagonist Activity Lipophilic Efficiency (logD) [3] | GPR139 Antagonist Activity Lipophilic Efficiency (logP) [3] | GPR139 Antagonist Activity Hill Slope [3] | SMILES | HEK antagonist activity Averaged Max % Response (±St. Dev.) [1] | pEC50 [1]
19.55 ± 6.15% | < 4.98 | 5.96 | 0.24 | 90.79 ± 3.84% | −130.5E−3 | −130.5E−3 | 1.41 | COc1cccc(OC)c1C(=O)Oc1ccc2c(=O)c(-c3ccc(Cl)cc3)c(C(F)(F)F)oc2c1 [SR-01000471218] | 69.47 ± 1.93% | 5.00
−2.2E+0 ± 2.25 ^ % |  |  | 0.24 | 58.09 ± 4.56% | 0.55 | 0.55 | 2.37 | CCn1cc(Cl)c(C(=O)OCC23CCC4c5ccccc5OC(C)(CC2C)C4C3C)n1 (stereo not shown) [SR-01000479575] | 11.60 ± 7.12% | < 5.12
2.74 ± 8.83% | < 4.86 | < 4.86 | 0.24 | 49.37 ± 5.06% | −233.9E−3 | −233.9E−3 |  | Cc1cc(C(F)(F)F)nc(SCC(=O)Nc2cccc(C(F)(F)F)c2)c1C#N [SR-01000507831] | 11.97 ± 1.54% | < 4.86
25.84 ± 3.55% | < 4.92 | 5.57 | 0.39 | 85.61 ± 2.70% | 0.57 | 0.57 | 1.30 | CCCCCCOC(=S)SCC(=O)Nc1ccccc1 [SR-01000508699] | 23.85 ± 9.06% | < 4.92
6.60 ± 4.93% | < 5.05 | 5.66 | 0.27 | 58.56 ± 7.31% | −1.6E+0 | −1.6E+0 | 1.46 | Cc1cc(C)c(NC(=O)c2ccc(Br)cc2)c(C)c1NC(=O)c1ccc(Br)cc1 [SR-01000512383] | 33.99 ± 7.44% | < 5.05
1.48 ± 6.53% | < 4.96 | 5.28 | 0.25 | 71.75 ± 3.35% | −1.4E+0 | −1.4E+0 | 0.81 | Cc1ccc(-n2cc(-c3ccccc3)nc2OCC(=O)Nc2ccccc2C)cc1 [SR-01000555462] | 9.21 ± 12.02% | < 4.96
−987E−3 ± 9.16 ^ % |  |  | 0.22 | 56.13 ± 9.03% | 2.24 | 2.24 | 1.46 | CCOC(=O)N1CCC(NC(=O)c2cnn3c(O)c(Cc4cccc(C)c4)c(C)nc23)CC1 [SR-01000581959] | 14.54 ± 9.66% | < 4.87

Further lines, the compound ahead of its results:

SMILES | GRP139 Agonist activity Averaged Max % Response (±St. Dev.) [2] | pEC50 [2] | pEC50 [3] | GPR139 Antagonist Activity Ligand Efficiency [3] | GPR139 Antagonist Activity Averaged Max % Response (±St. Dev.) [3] | GPR139 Antagonist Activity Lipophilic Efficiency (logD) [3] | GPR139 Antagonist Activity Lipophilic Efficiency (logP) [3] | GPR139 Antagonist Activity Hill Slope [3] | HEK antagonist activity Averaged Max % Response (±St. Dev.) [1] | pEC50 [1]
Brc1ccc2[nH]cc(-c3nnc4ccc5ccccc5n34)c2c1 [SR-01000524226] | −11.2 ± 4.96% | < 4.88 | 4.99 | 0.30 | 60.57 ± 14.37% | 1.28 | 1.28 | 1.32 | −2.2E+0 ± 7.28 ^ % | < 4.88
COc1ccc(C(C(=O)NC(C)c2ccccc2)(c2ccccc2)c2ccccc2)cc1 (stereo not shown) [SR-01000529482] | 3.89 ± 5.42% | < 4.97 | 5.10 | 0.22 | 56.80 ± 4.90% | −1.1E+0 | −1.1E+0 | 0.94 | 16.45 ± 6.46% | < 4.97
O=C(CSc1nc(-c2ccccc2)cn1-c1ccc(F)cc1)Nc1ccccc1 [SR-01000555413] | 5.85 ± 3.71% | < 4.95 | 5.30 | 0.26 | 77.15 ± 0.74% | −521.6E−3 | −521.7E−3 | 1.24 | −6.1E+0 ± 7.39 ^ % | < 4.95
Cc1cc(C)cc(-n2cnc3cc(C(=O)NCc4ccccc4Cl)ccc32)c1 [SR-01000579741] | 21.81 ± 2.59% | < 4.89 | 5.51 | 0.28 | 81.29 ± 5.44% | −62.7E−3 | −63.1E−3 | 2.25 | 13.52 ± 10.95% | < 4.89
Cc1cccc(-n2ccnc2SCC(=O)Nc2cccc(C)c2C)c1 [SR-01000907209] | 13.37 ± 4.41% | < 4.85 | < 5.80 | 0.33 | 87.64 ± 8.11% | 0.62 | 0.62 |  | 18.39 ± 12.65% | < 4.85
Cc1c(-c2cccc(NC(=O)C3c4ccccc4Oc4ccccc43)c2)nc2ncccn12 [SR-01000907648] | 35.82 ± 4.87% | < 4.85 | 5.82 | 0.25 | 88.60 ± 6.25% | 1.51 | 1.51 | 0.23 | 55.77 ± 9.26% | 5.12
